Among the data in BindingDB's records for doi:10.7270/Q2B27SRF (Broad Institute, 2010) are EC50 values, retold here.

The structures appear in SMILES notation.

Chain of Serine/threonine-protein kinase 33 (Q9BYT3 whole entry): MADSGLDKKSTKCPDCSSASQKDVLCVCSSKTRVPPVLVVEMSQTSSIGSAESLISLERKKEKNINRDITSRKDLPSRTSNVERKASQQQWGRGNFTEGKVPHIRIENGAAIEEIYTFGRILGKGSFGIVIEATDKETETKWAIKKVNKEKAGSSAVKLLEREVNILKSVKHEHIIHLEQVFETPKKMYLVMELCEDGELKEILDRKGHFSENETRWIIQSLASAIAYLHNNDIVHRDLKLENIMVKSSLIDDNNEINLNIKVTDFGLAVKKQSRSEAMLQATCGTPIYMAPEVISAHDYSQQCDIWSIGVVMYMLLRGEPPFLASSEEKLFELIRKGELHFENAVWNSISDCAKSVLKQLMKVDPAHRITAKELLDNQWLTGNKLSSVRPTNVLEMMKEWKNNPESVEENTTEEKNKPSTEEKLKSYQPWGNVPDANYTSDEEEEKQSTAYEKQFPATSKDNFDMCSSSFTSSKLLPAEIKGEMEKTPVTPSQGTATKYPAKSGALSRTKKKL

This assay has as its target Serine/threonine-protein kinase 33 (Homo sapiens, UniProt Q9BYT3). In words: inhibition of STK33 phosphorylation of MBP – biochemical, luminescence, cell-free, retest, dose response (AID 2821).
The term EC50 denotes the midpoint of the concentration-response curve. A higher EC50 goes with weaker potency. With `Cc1cc(N2CCN(C)CC2)nc2ccc(NC(=O)c3ccc(Br)o3)cc12` [SMR000022431], the EC50 came out at 10.3 µM.
`O=C1c2ccccc2-c2onc3ccc(NCCCn4ccnc4)c1c23` [SMR000044769] came in with an EC50 of 8.03 µM. This EC50 and that of the compound before are within 1.5-fold of each other.
Then `O=C1c2c(O)ccc(O)c2C(=O)c2c(NCCNCCO)ccc(NCCNCCO)c21` [SMR000058480], with 5.88 µM; and `c1cncc(Nc2nc(-c3cccnc3)cs2)c1` [SMR000077836], with 26.6 µM; and `Cc1cccc(-c2nc3ccccc3c3nncn23)c1` [SMR000106108], with 22.5 µM.
The figure for `O=C1C=CC(O)(c2cc(=O)c3c(O)cc(O)cc3o2)C=C1` [SMR000156275] is over 120 µM.
Then `COc1ccc(C(=O)ON=C(C)c2ccccc2)cc1` [SMR000159704], with 68.2 µM.
`O=C(O)c1cccc(Nc2nc(-c3cccnc3)nc3ccccc23)c1` [SMR000172180] gave an EC50 of 32.5 µM. Compared with the last compound, the EC50 is about 2.1-fold lower.
The figure for `N=c1c2c(-c3ccccc3)c(-c3ccccc3)oc2ncn1Cc1ccco1` [SMR000176070] is over 120 µM.
`O=C1Nc2ccccc2C1=Cc1cnc[nH]1` [SMR000180717] registered an EC50 of 7.94 µM.
Then `O=C1N=C(NCc2ccccc2)SC1=Cc1ccc(O)cc1` [SMR000217101], with 2.11 µM.
Then `Cc1sc2ncnc(N=NCc3cccc(O)c3)c2c1C` [SMR000219295], with 17 µM.
The figure for `Cc1ccc(NC(=O)COC(=O)c2cc(Cl)ccc2Cl)c(Br)c1` [SMR000259824] is over 120 µM; for `CC(C)N=C(S)Nc1ccc2c[nH]nc2c1` [SMR000261130] it is over 120 µM; for `S=C(Nc1cccc(Cl)c1)Nc1ccc2cn[nH]c2c1` [SMR000261299] it is over 120 µM.
With `CCc1ccc(NC(S)=Nc2ccc3c[nH]nc3c2)cc1` [SMR000261301], the EC50 amounted to 9.41 µM.
Then `CCNC(=S)Nc1ccc2cn[nH]c2c1` [SMR000261305], with 49.7 µM; and `O=S(=O)(O)c1cccc(N=Nc2c(O)ccc3ccccc23)c1` [SMR000273743], with 3.46 µM.
The figure for `O=C1NC(=O)/C(=C\c2ccc(O)cc2O)S1` [SMR000274064] is 8.73 µM; for `O=C(O)Cn1cc(C=c2sc3nc4ccccc4n3c2=O)c2ccccc21` [SMR000298358] it is 14.2 µM.
`N#CC(C(=O)c1ccco1)c1nc2ccccc2[nH]1` (configuration not stated) [SMR000305206] registered an EC50 of 8.49 µM.
The figure for `Cc1ccc2c(c1)/C(=C/c1ccco1)C(=O)N2` [SMR000312107] is 38.9 µM.
As for `O=C1NC(=O)/C(=C/c2ccc(O)cc2)S1` [SMR000324608], the midpoint of the response, the EC50, lay at 12.4 µM.
The figure for `S=C(Nc1cccnc1)Nc1cccc2cnccc12` [SMR000348842] is over 120 µM.
Then `O=C(Nc1nc2ccccc2[nH]1)c1ccc(Br)o1` [SMR000352903], with 10.1 µM; and `CCN(CC)C(=O)c1ccc(NC(=O)Nc2ccccc2F)cc1` [SMR000376874], with over 120 µM; and `NC(=O)NN=Cc1c(O)ccc2oc3c(c12)CCCC3` [SMR000414386], with 1.24 µM.
Compound `COc1cc(C2c3sc(=O)[nH]c3Sc3c2c(O)n(-c2ccc(C)cc2)c3O)ccc1O` (configuration not stated) [SMR000414898] returned an EC50 of over 120 µM.
The compound `Nc1ccc(N=Nc2ccccc2O)c(N)c1` [SMR000476341] registered an EC50 of 16.1 µM.
The figure for `Nc1nc(-c2cc(O)ccc2[N+](=O)[O-])cc(-c2ccccc2)c1[N+](=O)[O-]` [SMR000504332] is under 0.1 µM.
Take `Oc1ccc(C=Nn2c(-c3ccccc3)n[nH]c2=S)cc1` [SMR000513437]: the midpoint of the response, the EC50, lay at 25.8 µM.
Compound `COc1ccc(CNc2nc3ccccc3s2)cc1OC` [SMR000523783] registered an EC50 of over 120 µM.
Compound `CC(C)(C)c1[nH]nc2c1C(=O)c1ccccc1-2` [SMR000528110] yielded an EC50 of 25 µM.
`CN1CCN(c2nc(-c3ccccc3O)nc3ccccc23)CC1` [SMR000539302] showed an EC50 of 42.8 µM.
Turning to `CN(C)/C=C/C(=O)c1ccc2noc(-c3ccccc3)c2c1` [SMR000549693], the EC50 worked out at 15.9 µM.
Then `COC(=O)c1ccc(COc2ccccc2/C=C/C(=O)c2ccc(OCC(=O)O)cc2)cc1` [SMR000590970], with 1.86 µM; and `COc1ccc(C(=O)ON=C(N)c2ccccn2)cc1` [SMR000608101], with 40.4 µM.
The compound `CC(Oc1ccc2c(c1)c1ccnc3c4ccccc4c(=O)n2c13)C(=O)NCCN1CCOCC1` (configuration not stated) [SMR000652046] had an EC50 of 0.416 µM.
Then `O=C(Nc1cc(C(=O)Nc2ccccc2C(=O)O)cc(C(=O)Nc2ccccc2C(=O)O)c1)c1ccccc1` [SMR000658665], with over 120 µM; and `CCCCCCCCCCCCCCCC[N+](C)(C)CCN(Cc1ccc(OC)cc1)c1ncccn1` [SMR001233380], with 35.8 µM.
The figure for `COc1cccc(C(=O)ON=C(N)c2ccccn2)c1` [The compound has not trivial name.] is 22.7 µM; for `Cc1ccc(NC(=O)c2cccc(C(=O)Nc3ccc(C)cc3C(=O)O)c2)c(C(=O)O)c1` [The compound has not trivial name.] it is 21.8 µM.
Compound `O=C(Nc1ccccc1C(=O)O)c1cccc(C(=O)Nc2ccccc2C(=O)O)c1` [The compound has not trivial name.] yielded an EC50 of 59.6 µM.
`CCCCCCCCCC[N+](C)(C)CC/C=C1/c2ccccc2Sc2ccc(Cl)cc21` [[(3Z)-3-(2-chloro-9-thioxanthenylidene)propyl]-decyl-dimethylammonium;bromide] yielded an EC50 of over 120 µM.
The figure for `CCCCCCCCCCOC(=O)Cn1c(COc2ccc(Cl)cc2)[n+](C)c2ccccc21` [decyl 2-[2-[(4-chloranylphenoxy)methyl]-3-methyl-benzimidazol-3-ium-1-yl]ethanoate;chloride] is over 120 µM; for `COc1cc(C=CC(=O)CC(=O)C=Cc2ccc(O)cc2)ccc1O` [demethoxycurcumin] it is 1.75 µM; for `COC(=O)c1cc(NC(=O)C2COc3ccccc3O2)cc(C(=O)OC)c1` (configuration not stated) [dimethyl 5-(2,3-dihydro-1,4-benzodioxin-3-ylcarbonylamino)benzene-1,3-dicarboxylate] it is over 120 µM.
